Earlier results in publication PMC6311893, “Computational prediction of plasma protein binding of cyclic peptides from small molecule experimental data using sparse modeling techniques” (BMC Bioinformatics, 2018).

Tested on: plasma protein
Conditions: cited from earlier work

| Compound | PPB (fb) |
| --- | --- |
| Nc1ccc(C(=O)O)c(O)c1 [4-aminosalicylic acid] | 0.62 |

Same assay, conditions: fraction bound to plasma protein; small molecule dataset, sheet 1-SM (Set Dte = test, Dtr = training); ref Ingle et al.; cited from earlier work

| Compound | PPB (fb) |
| --- | --- |
| CC(=O)OCC(=O)[C@@]12N=C(C)O[C@@H]1C[C@H]1[C@@H]3CCC4=CC(=O)C=C[C@]4(C)[C@H]3[C@@H](O)C[C@@]12C [deflazacort] | 0.4 |
| NCC(CC(=O)O)c1ccc(Cl)cc1 (stereo not drawn) [baclofen] | 0.3 |
| CC(=O)c1ccc(S(=O)(=O)NC(=O)NC2CCCCC2)cc1 [acetohexamide] | 0.96 |
| N=C(N)NC(=O)c1nc(Cl)c(N)nc1N [amiloride] | 0.4 |
| O=C(O)c1cn(-c2cccc(F)c2)c2cc(N3CCNCC3)c(F)cc2c1=O [2b(m-F)] | 0.51 |
| CN1C(C(=O)Nc2ccccn2)=C(O)c2sccc2S1(=O)=O [Tenoxicam] | 0.99 |
| CC(=O)[C@]1(O)Cc2c(O)c3c(c(O)c2[C@@H](O[C@H]2C[C@H](N)[C@H](O)[C@H](C)O2)C1)C(=O)c1ccccc1C3=O [Idarubicin] | 0.95 |
| C[C@H](Cn1cnc2c(N)ncnc21)OCP(=O)(O)O [Tenofovir] | 0.07 |
| Cc1cc(CC(=O)O)n(C)c1C(=O)c1ccc(Cl)cc1 [zomepirac] | 0.98 |
| CN(C)CCC=C1c2ccccc2C=Cc2ccccc21 [cyclobenzaprine] | 0.93 |
| CCC1(c2ccccc2)NC(=O)N(C)C1=O (stereo not drawn) [mephenytoin] | 0.4 |
| CC1(C)SC2C(NC=O)C(=O)N2C1C(=O)O (stereo not drawn) [penicillin1] | 0.18 |
| CCCc1cc(=O)[nH]c(=S)[nH]1 [Propylthiouracil] | 0.81 |
| CC(=O)OCC(=O)[C@@]1(O)CC[C@H]2[C@@H]3CCC4=CC(=O)CC[C@]4(C)[C@H]3C(=O)C[C@@]21C [cortisone acetate] | 0.95 |
| Clc1ccccc1C(c1ccccc1)(c1ccccc1)n1ccnc1 [clotrimazole] | 0.5 |
| CC(=O)O[C@H]1C[C@@H]2CC[C@@H]3[C@H](CC[C@@]4(C)[C@H]3C[C@H](N3CC[N+](C)(C)CC3)[C@@H]4OC(C)=O)[C@@]2(C)C[C@@H]1N1CC[N+](C)(C)CC1 [Pipecuronium] | 0.02 |
| CC1(C)S[C@@H]2[C@H](NC(=O)COc3ccccc3)C(=O)N2[C@H]1C(=O)O [Phenoxymethylpenicillin] | 0.67 |
| CCOC(=O)OC(C)OC(=O)[C@@H]1N2C(=O)[C@@H](NC(=O)[C@H](N)c3ccccc3)[C@H]2SC1(C)C (stereo partly drawn) [bacampicillin] | 0.2 |
| CN(C)C/C=C(/c1ccc(Br)cc1)c1cccnc1 [zimeldine] | 0.9 |
| CN1CCC(=C2c3ccccc3CCc3sccc32)CC1 [pizotyline] | 0.91 |
| C=C(c1ccc(C(=O)O)cc1)c1cc2c(cc1C)C(C)(C)CCC2(C)C [Bexarotene] | 0.99 |

Same assay, conditions: fraction bound to plasma protein; small molecule dataset, sheet 1-SM, Set Dtr; ref Ingle et al.; cited from earlier work

| Compound | PPB (fb) |
| --- | --- |
| Cc1nccn1CC1CCc2c(c3ccccc3n2C)C1=O (stereo not drawn) [Ondansetron] | 0.73 |
| C=CCc1ccccc1OCC(O)CNC(C)C (stereo not drawn) [Alprenolol] | 0.81 |
| CCc1nc(N)nc(N)c1-c1ccc(Cl)cc1 [Pyrimethamine] | 0.89 |
| C[C@H]1C[C@H]2[C@@H]3CCC4=CC(=O)C=C[C@]4(C)[C@@]3(F)[C@@H](O)C[C@]2(C)[C@@]1(O)C(=O)CO [Betamethasone] | 0.66 |
| C[C@H]1O[C@@H](n2cc(F)c(=O)[nH]c2=O)[C@H](O)[C@@H]1O [Doxifluridine] | 0.39 |
| CC1=C(C/C=C(\C)CCCC(C)CCCC(C)CCCC(C)C)C(=O)c2ccccc2C1=O (stereo not drawn) [vitamin-K] | 0.9 |
| Nc1ccc(O)c(C(=O)O)c1 [Aminosalicylic acid__ 5-] | 0.61 |
| C#C[C@]1(O)CC[C@H]2[C@@H]3CCC4=CC(=O)CC[C@@H]4[C@H]3CC[C@@]21CC [Levonorgestrel] | 0.975 |
| O=c1[nH]c2ccccc2n1CCCN1CCC(n2c(=O)[nH]c3cc(Cl)ccc32)CC1 [Domperidone] | 0.92 |
| CC1(C)S[C@@H]2[C@H](NC(=O)[C@H](NC(=O)N3CCN(S(C)(=O)=O)C3=O)c3ccccc3)C(=O)N2[C@H]1C(=O)O [Mezlocillin] | 0.31 |
| N=C(N)NC(=O)c1cnn(-c2cccc3ncccc23)c1C1CC1 [zoniporide] | 0.5 |
| C[C@@H](CN1CC(=O)NC(=O)C1)N1CC(=O)NC(=O)C1 [Dexrazoxane] | 0.01 |
| CN1[C@@H]2CC[C@H]1C[C@@H](OC(=O)c1c[nH]c3ccccc13)C2 [tropisetron] | 0.7 |
| CNCCC=C1c2ccccc2CCc2ccccc21 [Nortriptyline] | 0.91 |

Same assay, conditions: fraction bound to plasma protein; small molecule dataset, sheet 1-SM; ref Ingle et al.; cited from earlier work

| Compound | PPB (fb) |
| --- | --- |
| N[C@@H]1[C@H]2CN(c3nc4c(cc3F)c(=O)c(C(=O)O)cn4-c3ccc(F)cc3F)C[C@@H]12 [Trovafloxacin] | 0.81 |
| CO[C@H]1C[C@@H]2CC[C@@H](C)[C@@](O)(O2)C(=O)C(=O)N2CCCC[C@H]2C(=O)O[C@H]([C@H](C)C[C@@H]2CC[C@@H](O)[C@H](OC)C2)CC(=O)[C@H](C)/C=C(\C)[C@@H](O)[C@@H](OC)C(=O)[C@H](C)C[C@H](C)/C=C/C=C/C=C/1C [sirolimus] | 0.92 |
| Cc1ccc2ccccc2c1C(=O)NC1C(=O)N2C1SC(C)(C)C2C(=O)O (stereo not drawn) [penicillin66] | 0.82 |
| COc1cc(NCc2ccc3nc(N)nc(N)c3c2C)cc(OC)c1OC [Trimetrexate] | 0.96 |
| CN(C)CC(c1ccc(O)cc1)C1(O)CCCCC1 (stereo not drawn) [O-desmethylvenlafaxine] | 0.3 |
| CO[C@]12C[C@@H](COC(=O)c3cncc(Br)c3)CN(C)[C@@H]1Cc1cn(C)c3cccc2c13 [nicergoline] | 0.95 |
| COc1nccnc1NS(=O)(=O)c1ccc(N)cc1 [sulfametopyrazine] | 0.72 |
| Cc1cn[nH]c1 [fomepizole] | 0 |
| CCCC(N)C(=O)NC1C(=O)N2C1SC(C)(C)C2C(=O)O (stereo not drawn) [penicillin12] | 0.33 |
| Cc1cccc(Nc2ccccc2C(=O)O)c1C [mefenamic acid] | 0.99 |
| CCOc1cnc2ccccc2c1C(=O)NC1C(=O)N2C1SC(C)(C)C2C(=O)O (stereo not drawn) [penicillin78] | 0.7 |
| O=C1CCC(N2C(=O)c3ccccc3C2=O)C(=O)N1 (stereo not drawn) [Thalidomide] | 0.57 |
| CCC1(C)CC(=O)NC1=O (stereo not drawn) [ethosuximide] | 0 |
| Cc1noc(NS(=O)(=O)c2ccc(N)cc2)c1C [Sulfisoxazole] | 0.92 |
| Nc1nc2c(c(=O)[nH]1)N(C=O)C(CNc1ccc(C(=O)N[C@@H](CCC(=O)O)C(=O)O)cc1)CN2 (stereo partly drawn) [leucovorin] | 0.91 |
| C=C(CC(=O)c1ccc(-c2ccccc2Cl)cc1)C(=O)O [Itanoxone] | 0.98 |
| COCCOc1cnc(NS(=O)(=O)c2ccccc2)nc1 [glymidine] | 0.8 |
| CC(Oc1cccc2ccccc12)C(=O)NC1C(=O)N2C1SC(C)(C)C2C(=O)O (stereo not drawn) [penicillin70] | 0.97 |
| Cn1nnc2c(C(N)=O)ncn2c1=O [temozolomide] | 0.15 |
| Cc1cc2c(OCC(O)CNC(C)C)cccc2[nH]1 (stereo not drawn) [mepindolol] | 0.5 |
| OCCN1CCN(CCCN2c3ccccc3Sc3ccc(C(F)(F)F)cc32)CC1 [fluphenazine] | 0.95 |
| COc1ccc2ccccc2c1C(=O)NC1C(=O)N2C1SC(C)(C)C2C(=O)O (stereo not drawn) [penicillin67] | 0.8 |
| CCCCOCC(=O)NC1C(=O)N2C1SC(C)(C)C2C(=O)O (stereo not drawn) [penicillin7] | 0.59 |
| CC#C[C@]1(O)CC[C@H]2[C@@H]3CCC4=CC(=O)CCC4=C3[C@@H](c3ccc(N(C)C)cc3)C[C@@]21C [mifepristone] | 0.98 |
| COC(C(=O)NC1C(=O)N2C1SC(C)(C)C2C(=O)O)c1cccc([N+](=O)[O-])c1 (stereo not drawn) [penicillin46] | 0.6 |
| CC(Cc1ccc(C(C)C(=O)NS(C)(=O)=O)cc1)C(=O)O (stereo not drawn) [JMC_10] | 0.7 |
| COC(C(=O)NC1C(=O)N2C1SC(C)(C)C2C(=O)O)c1ccccc1 (stereo not drawn) [penicillin38] | 0.62 |
| C[C@]1(Cn2ccnn2)[C@H](C(=O)O)N2C(=O)C[C@H]2S1(=O)=O [tazobactam] | 0.23 |

Same assay, conditions: human, plasma; cited from earlier work

| Compound | PPB (fb) |
| --- | --- |
| CC(C)C[C@H](NC(=O)[C@@H](COC(C)(C)C)NC(=O)[C@H](Cc1ccc(O)cc1)NC(=O)[C@H](CO)NC(=O)[C@H](Cc1c[nH]c2ccccc12)NC(=O)[C@H](Cc1cnc[nH]1)NC(=O)[C@@H]1CCC(=O)N1)C(=O)N[C@@H](CCCNC(=N)N)C(=O)N1CCC[C@H]1C(=O)NNC(N)=O [goserelin] | 0.2 |

Same assay, conditions: plasma; cited from earlier work

| Compound | PPB (fb) |
| --- | --- |
| salvianolic acid B | 0.75 |
| CCCCC1(CC)C(=O)NC(=O)NC1=O [butobarbital] | 0.26 |
| CCCC(C)(COC(N)=O)COC(=O)NC(C)C (stereo not drawn) [carisoprodol] | 0.58 |
| Gabapentin | 0.02 |
| CCCCCc1cc(O)c2c(c1)OC(C)(C)C1CCC(C)=CC21 (stereo not drawn) [Tetrahydrocannabinol__ D9-] | 0.96 |
| CCOC(=O)[C@@H]1C2CCC(C[C@@H]1OC(=O)c1ccccc1)N2C (stereo partly drawn) [Cocaethylene] | 0.36 |
| CC[C@@]1(O)C[C@H](O[C@H]2C[C@H](N(C)C)[C@H](O[C@H]3C[C@H](O)[C@H](O[C@H]4CCC(=O)[C@H](C)O4)[C@H](C)O3)[C@H](C)O2)c2c(cc3c(c2O)C(=O)c2c(O)cccc2C3=O)[C@H]1C(=O)OC [aclarubicin] | 0.43 |
| CO[C@H]1[C@@H](O)C[C@H](O[C@H]2[C@@H](O)C[C@H](O[C@H]3[C@@H](O)C[C@H](O[C@H]4CC[C@@]5(C)[C@H](CC[C@@H]6[C@@H]5C[C@@H](O)[C@]5(C)[C@@H](C7=CC(=O)OC7)CC[C@]65O)C4)O[C@@H]3C)O[C@@H]2C)O[C@@H]1C [metildigoxin] | 0.15 |
| CC(=O)O[C@H]1C[C@H](O[C@H]2[C@@H](O)C[C@H](O[C@H]3[C@@H](O)C[C@H](O[C@H]4CC[C@@]5(C)[C@H](CC[C@@H]6[C@@H]5C[C@@H](O)[C@]5(C)[C@@H](C7=CC(=O)OC7)CC[C@]65O)C4)O[C@@H]3C)O[C@@H]2C)O[C@H](C)[C@H]1O [alpha-acetyldigoxin] | 0.25 |
| CC(=O)[C@H]1CC[C@H]2[C@@H]3C=CC4=CC(=O)CC[C@@]4(C)[C@@H]3CC[C@]12C [dydrogesterone] | 0.97 |
